In patent publication US12502361B2, “Method for treating dengue virus infection” (priority 2021, dated 2025):
Where two headings read alike, the source gives them in different places.

Legend:
[1] = test system: endosomal acidification; assay: Acridine orange staining of endosomal acidification in DENV-infected BHK-21 cells; type: cell-based, hamster; conditions: BHK-21 cells pretreated 1 h, DENV infection 2 h
Description: Hoechst was used to label nuclear DNA. Scale bar: 100 μm.
Cells were washed with HBSS (Thermo Fisher Scientific) once and then stained with acridine orange agent (Sigma-Aldrich) and Hoechst 33258 (Thermo Fisher Scientific) in an incubator at 37° C. in 5% CO2. After 45 minutes, the cells were washed with HBSS once and rinsed with HBSS. Subsequently, cells were visualized with a fluorescence microscope (EVOS). Hoechst 33258 was used for nuclear staining.
The endosomal acidification step is critical for DENV uncoating to release the viral genome for further replication in the cytoplasm (Solomon et al., J Infect, 42, 2001, 104-115). Therefore, the pH-sensitive dye acridine orange (AO) was used to explore whether propofol affects the early stages of DENV infection accordingly (Kao et al., PLoS Negl Trop Dis, 12, 2018, e0006715).

[2] = test system: viral dsRNA; assay: dsRNA immunostaining in DENV2-infected BHK-21 cells; type: cell-based, Dengue virus serotype 2; conditions: BHK-21 cells pretreated 1 h, DENV2 infection 6 h
Description: DAPI was used to label nuclear DNA. […] Scale bar: 100 μm.
Cells were washed with ice-cold PBS 3 times and fixed with 4% paraformaldehyde (Sigma-Aldrich) at room temperature for 15 minutes. Then, the cells were washed 3 times with ice-cold PBS and permeabilized with permeabilization buffer (PBS containing 1% Triton X-100) at room temperature for 5 minutes. The cells were then washed 3 times with ice-cold PBS and immunoblocked with blocking buffer (PBS containing 1% BSA and 0.01% Triton X-100) at 4° C. for 30 minutes. Next, the cells were washed 3 times with ice-cold PBS and immunohybridized with mouse anti-dsRNA J2 primary antibody at 4° C. overnight. Subsequently, the cells were washed 3 times with ice-cold PBS and stained with Alexa Fluor 488-conjugated goat anti-mouse antibody (Thermo Fisher Scientific) at room temperature for 15 minutes. The cells were washed 3 times with ice-cold PBS and then visualized with fluorescence or confocal microscopy. DAPI (Sigma-Aldrich) was used for nuclear staining.
Following endocytosis, the viral genome is released into the cytoplasm and undergoes genome replication (Solomon et al., J Infect, 42, 2001, 104-115).

[3] = test system: BHK-21 cells; conditions: propofol 1 to 50 μg/ml, 24 h
Description: Quantitative data are presented as the mean±SD of at least three independent experiments (n=3). ***p<0.001. ns, not significant.
According to the manufacturer's instructions, cell cytotoxicity was assessed using Cytotoxicity Detection Kit assays (Roche Diagnostics, Lewes, UK).

[4] = test system: DENV2; conditions: BHK-21 cells pretreated 1 h, DENV2 MOI=1, 24 h; doses of 5, 10, 25 and 50 μg/ml
Description: Baby hamster kidney (BHK)-21 fibroblasts (ATCC, CCL10) were maintained in Dulbecco's modified Eagle's medium (DMEM; Thermo Fisher Scientific) containing 10% heat-inactivated fetal bovine serum (FBS, Biological Industries) and 1% penicillin-streptomycin (Thermo Fisher Scientific) at 37° C. in 5% CO2. […] The Aedes albopictus clone mosquito C6/36 cells (ATCC, CRL1660) were maintained in Minimum Essential Medium (MEM; Thermo Fisher Scientific) containing 10% heat-inactivated FBS, 1% penicillin-streptomycin (Thermo Fisher Scientific), 1% sodium pyruvate (Cat#11360-070, Thermo Fisher Scientific), 1% 4-(2-hydroxyethyl) piperazineethanesulfonic acid (HEPES; Cat#15630-080, Thermo Fisher Scientific) and 1% nonessential amino acids (NEAA; Cat#11140-035, Thermo Fisher Scientific) at 28° C. in 5% CO2. Dengue virus serotype 2 (DENV2, strain PL046) was obtained from Center Disease Control in Taiwan and propagated in a C6/36 cell monolayer at a multiplicity of infection (MOI) of 0.01. After incubation (28° C. in 5% CO2) for 5 days, the viral supernatants were collected and filtered with a 0.22 μm filter and then stored at −80° C. until use. Viral titers were determined by plaque assay using BHK-21 cells.
BHK-21 cells were grown in a monolayer in a 12-well plate at 7×10^4 cells/well. […]

[5] = test system: luciferase-expressing DENV replicon; conditions: BHK-21-SGR replicon cells treated with or without propofol
Description: Baby hamster kidney (BHK)-21 fibroblasts (ATCC, CCL10) were maintained in Dulbecco's modified Eagle's medium (DMEM; Thermo Fisher Scientific) containing 10% heat-inactivated fetal bovine serum (FBS, Biological Industries) and 1% penicillin-streptomycin (Thermo Fisher Scientific) at 37° C. in 5% CO2. BHK-21 cells harboring a luciferase-expressing DENV replicon (BHK-D2-Fluc-SGR-Neo-1) were maintained in DMEM with 10% heat-inactivated FBS, 1% penicillin-streptomycin, and 0.4 mg/ml G418 agent (Cat# A1720, Sigma-Aldrich) at 37° C. in 5% CO2.
BHK-D2-Fluc-SGR-Neo-1 cells (replicons) were seeded in 96-well plates at 3,000 cells/well overnight.
To assess propofol's inhibitory activity on DENV infection, we next used BHK-21-SGR cells, a cellular replicon-based reporter assay, to examine propofol's translational targets.

[6] = test system: DENV NS1; conditions: BHK-21 cells pretreated 1 h, DENV2 MOI=1, 24 h post-infection
Description: (§1) Cells were collected and extracted with lysis buffer containing a protease inhibitor cocktail (Sigma-Aldrich). The processed proteins were separated by 10% SDS polyacrylamide gel electrophoresis followed by transfer to a polyvinylidene difluoride (PVDF) membrane (Millipore). Then, the PVDF membrane was blocked with 5% nonfat milk in 0.05% Tween-20-containing Tris-buffer-based saline (TBS-T) at room temperature for 1 h. Next, the membrane was washed three times with TBS-T buffer and immunohybridized with the indicated primary antibodies at 4° C. overnight. Then, the membrane was washed with TBS-T buffer three times, followed by incubation with the indicated HRP-conjugated secondary antibodies at room temperature for 1 h. The antibody-protein complexes on the PVDF membrane were detected using an ECL Western blot detection kit (PerkinElmer). The signals of the identified proteins were captured with a film exposure system.

[7] = test system: TNF-α; conditions: RAW 264.7 cells, propofol 10 or 25 μg/ml, DENV2 MOI=10, 24 h
Description: (§2) RAW 264.7 cells were pretreated without or with propofol (10 or 25 μg/ml) followed by infection with DENV2 (MOI=10) for 24 h. […] Quantitative data are presented as the mean±SD of the experiments (n=3). *p<0.05; ***p<0.001.
According to the manufacturer's instruction, samples were harvested, and the concentration of mouse TNFα was determined using ELISA kit (Cat#88-7324-88, eBioscience).
(§3) In this study, RAW 264.7 cells were pretreated with or without propofol (10 or 25 μg/ml) followed by infection with DENV for 24 h.

[8] = test system: phospho-STAT1 and STAT1; conditions: RAW 264.7 cells, propofol 10 or 25 μg/ml, DENV2 MOI=10, 24 h
Description: as §2, §1, §3

[9] = test system: TNF-α; conditions: CoCl2-treated hypoxic BV2 microglia; cited from earlier work
[10] = test system: TNF-α; conditions: cecal ligation and puncture-administrated rat liver; cited from earlier work

In the case of `CO/C1=C\C(C)=C\[C@@H](C)[C@@H](O)[C@@H](C)C/C(C)=C/C=C/[C@H](OC)[C@@H]([C@@H](C)[C@@H](O)[C@H](C)[C@@]2(O)C[C@@H](O)[C@H](C)[C@@H](C(C)C)O2)OC1=O` [Baf A1, bafilomycin A1], the “endosomal acidification (acridine orange staining)” value [1] was “endosome acidification was blocked” and the “viral dsRNA expression (immunostaining, MFI)” value [2] was “reduced dsRNA expression”.
In the case of `CC(C)c1cccc(C(C)C)c1O` [propofol, 2,6-diisopropylphenol], the “endosomal acidification (acridine orange staining)” value [1] was “does not affect endosomal acidification”, the “viral dsRNA expression (immunostaining, MFI)” value [2] was “does not affect blocking DENV viral dsRNA replication” and the “cytotoxicity (LDH assay)” value [3] was “did not cause cytotoxicity”. For the same compound, the “DENV virion release (viral titer, plaque assay)” value [4] was “significantly (p<0.001) reduced DENV virion release”, the “luciferase activity of replicons (viral protein translation)” value [5] was “no remarkable difference” and the “viral NS1 protein expression (western blot)” value [6] was “decreased in a dose-dependent manner”. The “mouse TNF-α production (ELISA)” value [7] was “reduced the cytokine levels in a dose-dependent manner”, the “protein expressions of phospho-STAT1 and STAT1 (western blot)” value [8] was “inhibited by propofol treatment” and the “gene and cytokine productions of TNF-α” value [9] was “reduces both the gene and cytokine productions of TNF-α”. For the same compound, the “gene and cytokine productions of TNF-α” value [10] was “reduces both the gene and cytokine productions of TNF-α”.
